This assay is described as follows: Agonist activity at RORgammat in C57 mouse CD4+ T cells assessed as induction of Th17 cells differentiation by measuring increase in IL17 production measured after 4 days by flow cytometry analysis. Background: Flow cytometry measures light scatter and fluorescence of single cells or particles in a stream.
Broadly, the EC50 is the concentration at which the effect is half-maximal. `CC(=O)N1CCN(c2ccc3c(c2)CCN(S(=O)(=O)N(C)Cc2ccccc2C(F)(F)F)C3)CC1`: the EC50 is 1120 nM.
To `CC(=O)N1CCN(c2ccc3c(c2)CCN(S(=O)(=O)N(C)Cc2ccccc2Cl)C3)CC1` belongs 230 nM; to `CC(=O)N1CCN(c2ccc3c(c2)CCN(S(=O)(=O)N(C)Cc2c(F)cccc2Cl)C3)CC1`, 220 nM.

Values taken from BindingDB's records for doi:10.1016/j.ejmech.2021.113585 (Fudan University, 2021).
